# Reference: patent US9867372B2, “Tetrazolinone compound and use of same” (SUMITOMO CHEMICAL COMPANY, LIMITED, priority 2013, dated 2018)
# Test system: cucumber powdery mildew fungus (Sphaerotheca fuliginea, a QoI-resistant strain, cytochrome b position 143 mutated from glycine to alanine)
# Assay type: in vivo
# Conditions: 200 ppm, QoI-resistant strain (Test Example 2, Comparative Example 2)
smiles,measurement,value
"Cn1nnn(-c2ccccc2COc2cccc(-c3ccccc3)c2)c1=O [1-[2-(biphenyl-3-yloxymethyl)-phenyl]-4-methyl-1,4-dihydrotetrazol-5-one]",area of lesion spots on the treated plant relative to that on an untreated plant,≥ 70%
